# Data taken from patent US7479484B2, “Peptides and peptidomimetics having immune-modulating, anti-inflammatory, and anti-viral activity” (priority 2003, dated 2009).
# Values joined by “and” are separate entries in the source; they are usually repeats but may differ in a detail not shown here. Equal values may be shown once. Where a name gives a salt, the structure may show the parent alone. Read-outs that look alike come from different tables or passages of the source. Marks after values point to notes of the source that are not given here. Where a SMILES comes first, the peptide text is derived from it. [ ]: non-standard residue; d: D form. dPhe(F5) = N[C@H](Cc1c(F)c(F)c(F)c(F)c1F)C(=O)O; dBpa = N[C@H](Cc1ccc(C(=O)c2ccccc2)cc1)C(=O)O; dCha = N[C@H](CC1CCCCC1)C(=O)O
# What was measured:
# [1] = Cytotoxicity in PBMC (tetrazolium dye reduction); type: cell-based; conditions: human, peripheral blood mononuclear cells (PBMC), highest concentration tested 80 μg/ml, called an estimate, read-out: TC50 (concentration decreasing cell viability by 50%)
# Method: (§1) CBP501 was tested for antiviral activity against HIV-1 in peripheral blood mononuclear cells (PBMC) using the clinical pediatric HIV strain WeJo. PBMCs were derived from normal HIV-1-negative donors, and cultured under conditions which promote cell survival and HIV replication. Antiviral activity was measured by detecting the amount of extracellular HIV-1p24 protein in a sample, where a decrease in p24 levels indicated antiviral activity. Cytotoxity was measured by a tetrazolium dye reduction method. Antiviral activity was analyzed for a series of dilutions of a stock solution of 100 μg/ml CBP501. The experiments were performed using serial dilutions of the compound, generating a series of concentrations from 0.3125 to 80 μg/ml CBP501.
# [2] = system: peripheral blood mononuclear cells (PBMC); experiment: Cytotoxicity in PBMC (tetrazolium dye reduction); type: cell-based
# Method: as §1
# 14-3-3 protein = conditions: as disclosed in U.S. application Ser. No. 10/347,145; cited from earlier work
# HIV-1 strain Ba-L = experiment: Inhibition of HIV-1 replication in human monocyte/macrophages (extracellular p24); type: cell-based; conditions: HIV-1 strain Ba-L in monocyte/macrophages
# Method: as §1, with “evaluated” for “tested”, “activity” for “activity against HIV-1”, “monocyte/macrophages” for “peripheral blood mononuclear cells (PBMC)”, “the” for “the clinical pediatric”, “Ba-L. Monocyte/macrophages” for “WeJo. PBMCs”
# monocyte/macrophages = experiment: Cytotoxicity in monocyte/macrophages (tetrazolium dye reduction); type: cell-based, human
# Method: as §1, with “evaluated” for “tested”, “activity” for “activity against HIV-1”, “monocyte/macrophages” for “peripheral blood mononuclear cells (PBMC)”, “the” for “the clinical pediatric”, “Ba-L. Monocyte/macrophages” for “WeJo. PBMCs”
# [3] = as above; type: cell-based, human; conditions: human, highest concentration tested 80 μg/ml, called an estimate, read-out: TC50 (concentration decreasing cell viability by 50%)
# Method: as §1, with “evaluated” for “tested”, “activity” for “activity against HIV-1”, “monocyte/macrophages” for “peripheral blood mononuclear cells (PBMC)”, “the” for “the clinical pediatric”, “Ba-L. Monocyte/macrophages” for “WeJo. PBMCs”
# [4] = system: kinases involved in the cell cycle G2 checkpoint, including mitogen activated kinase p38; conditions: as disclosed in U.S. application Ser. No. 10/347,145; cited from earlier work
# HIV-1 strain WeJo = experiment: Inhibition of HIV-1 replication in PBMC (extracellular p24); type: cell-based; conditions: HIV-1 strain WeJo in PBMC
# Method: as §1
# [5] = system: passive cutaneous anaphylaxis (PCA); experiment: Passive cutaneous anaphylaxis (PCA) in rats; type: in vivo, Wistar rats; conditions: rat, IP; for PCA Response 1st Spot / PCA Response 2nd Spot: weal score per animal (N 1-3); for % Inhibition: relative to vehicle control group; for Total PCA Response: sum of scores of 3 animals
# Method: CBP501 (SEQ ID NO: 80) was evaluated for anti-allergic activity in a model of passive cutaneous anaphylaxis (PCA) in Wistar rats. CBP501, at doses of 20, 10, and 5 mg/kg, was administered intraperitoneally (IP) 30 minutes before challenge with a mixture of ovalbumin and Evans Blue dye.
# CBP501 was dissolved in 0.9% NaCl. CBP501, at 20, 10 and 5 mg/kg, was administered intraperitoneally (IP) 30 min before challenge with a mixture of ovalbumin and Evans Blue dye.
# Animals: Male or female Wistar rats were provided by the animal breeding center of MDS Pharma Services-Taiwan Ltd. Space allocation for 6 animals was 45×23×21 cm. All animals were maintained in a hygienic environment in a controlled temperature (21.5-22.5° C.) and humidity (50%-70%) environment, with 12 hour light-dark cycles for at least one week, housed in the MDS Pharma Services-Taiwan Laboratory, prior to being used. All aspects of this work including housing, experimentation and disposal of animals were performed in general accordance with the International Guiding Principles for Biomedical Research Involving Animals (CIOMS Publication No. ISBN 92 90360194, 1985).
# Chemicals: Cyproheptadine-HCl (RBI-USA), ethanol absolute (Merck, Germany), distilled water (in-house), Evans Blue (Fluka, Switzerland), and ovalbumin (Sigma-Aldrich, USA) were used.
# Method of administration: Five groups of three (3) Wistar-derived male rats weighing 80+/−10 g were passively sensitized 16 hours earlier by intradermal injection of reaginic (IgE) antiovalbumin serum (0.05 ml) on two spots of the dorsal surface. […] Within 30 minutes after administration of CBP501, the animals were challenged intravenously (IV) with a mixture of ovalbumin (1 mg) and Evans Blue dye (5 mg). Animals were sacrificed 30 minutes after challenge.
# Results: Two measured weal diameters were averaged for each animal and scored 0 if <0.05 cm, 1 if 0.05-0.2 cm, 2 if 0.2-0.4 cm, 3 if 0.4-0.6 cm, 4 if 0.6-0.8 cm and 5 if >0.8 cm. Maximum possible score for each animal totals 2×5=10. Inhibition of the resulting PCA blue colored weal by 50 percent or more relative to the vehicle control group indicates possible antiallergic activity. Results are shown in Table 1, below, where significant changes are indicated by an asterisk(*).
# [6] = system: adjuvant-induced arthritis; conditions: rat
# [7] = highest concentration tested 80 μg/ml, called an estimate
# [8] = 5 mg/kg, 30 min before challenge
# [9] = 10 mg/kg, 30 min before challenge
# [10] = 20 mg/kg, 30 min before challenge
compound,measurement,setting,value
"N=C(N)NCCC[C@@H](NC(=O)[C@@H](CCCNC(=N)N)NC(=O)[C@@H](CCC(N)=O)NC(=O)[C@@H](CCCNC(=N)N)NC(=O)[C@@H](CCCNC(=N)N)NC(=O)[C@@H](CCCNC(=N)N)NC(=O)[C@@H](CC1CCCCC1)NC(=O)[C@@H](Cc1c(F)c(F)c(F)c(F)c1F)NC(=O)[C@@H](CO)NC(=O)[C@@H](Cc1c[nH]c2ccccc12)NC(=O)[C@@H](CO)NC(=O)[C@H](N)Cc1ccc(C(=O)c2ccccc2)cc1)C(=O)O [CBP501, (d-Bpa)(d-Ser)(d-Trp)(d-Ser)(d-Phe-2,3,4,5,6-F)(d-Cha)(d-Arg)(d-Arg)(d-Arg)(d-Gln)(d-Arg)(d-Arg)] (H-[dBpa][dS][dW][dS][dPhe(F5)][dCha][dR][dR][dR][dQ][dR][dR]-OH)",CC50,[1],> 80 µg/mL
same,cell viability at the highest concentration tested (in words),[2]; 80 μg/ml,hardly affected
same,TC50 (concentration decreasing cell viability by 50%),[2]; [7],> 80 µg/mL
same,binding to 14-3-3 protein (in words),14-3-3 protein,binds
same,TI (therapeutic index=TC50/IC50),HIV-1 strain Ba-L,> 12.3
same,IC50 (concentration that inhibited virus replication by 50%),HIV-1 strain Ba-L; p24,6.5 µg/mL
same,decrease of cell viability at the highest concentration tested,monocyte/macrophages; 80 μg/ml,about 25%
same,TC50 (concentration decreasing cell viability by 50%),monocyte/macrophages; [7],> 80 µg/mL
same,CC50,[3],> 80 µg/mL
same,inhibition of phosphorylation activities of kinases involved in the cell cycle G2 checkpoint (in words),[4],inhibits the phosphorylation activities
same,TI (therapeutic index=TC50/IC50),HIV-1 strain WeJo,> 113
same,IC50 (concentration that inhibited virus replication by 50%),HIV-1 strain WeJo; p24,0.71 µg/mL
same,PCA Response 1st Spot,[5]; [8],0 (0 if <0.05 cm) and 1 (1 if 0.05-0.2 cm) (2×)
same,PCA Response 2nd Spot,[5]; [8],0 (0 if <0.05 cm) and 1 (1 if 0.05-0.2 cm) (2×)
same,% Inhibition,"[5]; 5 mg/kg, 5 mg/kg",87%
same,Total PCA Response,[5]; 5 mg/kg,4
same,PCA Response 1st Spot,[5]; [9],0 (0 if <0.05 cm) (2×) and 1 (1 if 0.05-0.2 cm)
same,PCA Response 2nd Spot,[5]; [9],0 (0 if <0.05 cm) (2×) and 1 (1 if 0.05-0.2 cm)
same,% Inhibition,"[5]; 10 mg/kg, 10 mg/kg",93%
same,Total PCA Response,[5]; 10 mg/kg,2
same,PCA Response 1st Spot,[5]; [10],0 (0 if <0.05 cm) (2×) and 1 (1 if 0.05-0.2 cm)
same,PCA Response 2nd Spot,[5]; [10],0 (0 if <0.05 cm) (2×) and 1 (1 if 0.05-0.2 cm)
same,% Inhibition,"[5]; 20 mg/kg, 20 mg/kg",93%
same,Total PCA Response,[5]; 20 mg/kg,2
same,activity in acute phase (in words),"[6]; IP, 2.5 mg/kg ×5 doses",moderate but non-significant activity
same,activity in late phase (in words),"[6]; IP, 2.5 mg/kg ×5 doses",no activity
same,anti-inflammatory activity in both acute and late phase (in words),"[6]; IP, 5 mg/kg once daily for 5 consecutive days",significant anti-inflammatory activity
same,anti-inflammatory activity in both acute and late phase (in words),"[6]; IP, 10 mg/kg single dose",significant anti-inflammatory activity
same,"% Inhibition relative to Vehicle treated control, Days (1-5)","[6]; in vivo, ip, 2.5 mg/kg",27%
same,"% Inhibition relative to Vehicle treated control, Days (14-18)","[6]; in vivo, ip, 2.5 mg/kg",−11%
same,"% Inhibition relative to Vehicle treated control, Days (1-5)","[6]; in vivo, ip, 5 mg/kg",51* %
same,"% Inhibition relative to Vehicle treated control, Days (14-18)","[6]; in vivo, ip, 5 mg/kg",34* %
same,"% Inhibition relative to Vehicle treated control, Days (1-5)","[6]; in vivo, ip, 10 mg/kg",61* %
same,"% Inhibition relative to Vehicle treated control, Days (14-18)","[6]; in vivo, ip, 10 mg/kg",31* %
"CN1CCC(=C2c3ccccc3C=Cc3ccccc32)CC1 [Cyproheptadine, Cyproheptadine-HCl, reference compound]",% Inhibition,"[5]; 1 mg/kg, 1 mg/kg",87* %
same,% Inhibition,"[5]; 1 mg/kg, listed as cyproheptadine-HCl, 1 mg/kg",87%
same,Total PCA Response,[5]; 1 mg/kg,4
same,PCA Response 1st Spot,[5]; 1 mg/kg,0 (0 if <0.05 cm) and 1 (1 if 0.05-0.2 cm) (2×)
same,PCA Response 2nd Spot,[5]; 1 mg/kg,0 (0 if <0.05 cm) and 1 (1 if 0.05-0.2 cm) (2×)
"C[C@]12CCC(=O)C=C1CC[C@@H]1[C@@H]2[C@@H](O)C[C@@]2(C)[C@H]1CC[C@]2(O)C(=O)CO [Hydrocortisone, hydrocortisone, reference compound]",activity in the acute phase (in words),[6]; 30 mg/kg daily for 5 days,significant activity
same,activity in the late phase (in words),[6]; 30 mg/kg daily for 5 days,near-significant activity
same,"% Inhibition relative to Vehicle treated control, Days (14-18)","[6]; PO, 30 mg/kg per dose × 5 doses, left hind paw volume, late phase",29%
same,"% Inhibition relative to Vehicle treated control, Days (1-5)","[6]; PO, 30 mg/kg per dose × 5 doses, right hind paw volume, acute phase",42* %
